Columns and labels:
[1] = design: species or system Swiss albino mice; conditions: mouse, in vivo
Excerpt: Housing Conditions: [table]

Tau protein = assay: Tau pathology: Tau protein in serum; format: in vivo, Swiss albino mice
[2] = system: Brain-derived neurotrophic factor (BDNF); assay: Neurotrophic factors: BDNF in serum; format: in vivo, Swiss albino mice
TNF-α = assay: Neuro-inflammation cytokines: TNF-α; format: in vivo, Swiss albino mice; conditions: serum (FIG. 7)
IL-6 = assay: Neuro-inflammation cytokines: IL-6 in cerebral cortex; format: in vivo, Swiss albino mice
Acetylcholine = assay: Cholinergic dysfunction: Acetylcholine level; format: in vivo, Swiss albino mice
Procedure: The following assays were performed, • Tau pathology: Tau protein • Neurotrophic factors: Brain-derived neurotrophic factor (BDNF) • Neuro-inflammation cytokines: TNF-α and IL-6 • Cholinergic dysfunction: Acetylcholine

[3] = system: scopolamine induced memory deficit (Alzheimer's disease) in Swiss albino mice; assay: Pole climbing test, scopolamine induced memory deficit
[4] = system: scopolamine induced memory deficit (Alzheimer's disease) in Swiss albino mice; assay: Spatial learning test (T-maze test), scopolamine induced memory deficit

With `NCCCS(=O)(=O)O` [Group 5, 3-amino-1-propanesulfonic acid] the “Body Weight, Initial” value [1] was 28.17 ± 2.5 gm, the “Feed Consumption, 0 day” value [1] was 3.83 gm and the “Feed Consumption, Week 4” value [1] was 4.88 gm. The “Tau Protein in Serum” value (Tau protein; Average of 6 animals) was 0.97 ng/mL, the “Tau Protein in Serum” value (Tau protein; animal 1) was 1.10 ng/mL and the “Tau Protein in Serum” value (Tau protein; animal 2) was 1.00 ng/mL. The “Tau Protein in Serum” value (Tau protein; animal 3) was 0.90 ng/mL, the “Tau Protein in Serum” value (Tau protein; animal 4) was 1.00 ng/mL and the “Tau Protein in Serum” value (Tau protein; animal 5) was 0.80 ng/mL. The “Tau Protein in Serum” value (Tau protein; animal 6) was 1.00 ng/mL, the “BDNF in Serum” value ([2]; Average of 6 animals) was 22.23 ng/mL and the “BDNF in Serum” value ([2]; animal 1) was 22.00 ng/mL. For the same compound, the “BDNF in Serum” value ([2]; animal 2) was 22.50 ng/mL, the “BDNF in Serum” value ([2]; animal 3) was 22.30 ng/mL and the “BDNF in Serum” value ([2]; animal 4) was 21.00 ng/mL. For the same compound, the “BDNF in Serum” value ([2]; animal 5) was 23.00 ng/mL, the “BDNF in Serum” value ([2]; animal 6) was 22.60 ng/mL and the TNF-alfa (TNF-α; Average of 6 animals) was 2.83 ng/mL. It also gave a TNF-alfa (TNF-α; animal 1) of 2.80 ng/mL, a TNF-alfa (TNF-α; animal 2) of 3.10 ng/mL and a TNF-alfa (TNF-α; animal 3) of 2.50 ng/mL. For the same compound, the TNF-alfa (TNF-α; animal 4) was 3.00 ng/mL, the TNF-alfa (TNF-α; animal 5) was 2.60 ng/mL and the TNF-alfa (TNF-α; animal 6) was 3.00 ng/mL. The “IL-6 in cerebral cortex” value (IL-6; Average of 6 animals) was 36.35 pg/mL, the “IL-6 in cerebral cortex” value (IL-6; animal 1) was 37.80 pg/mL and the “IL-6 in cerebral cortex” value (IL-6; animal 2) was 36.50 pg/mL. For the same compound, the “IL-6 in cerebral cortex” value (IL-6; animal 3) was 35.70 pg/mL, the “IL-6 in cerebral cortex” value (IL-6; animal 4) was 34.80 pg/mL and the “IL-6 in cerebral cortex” value (IL-6; animal 5) was 36.50 pg/mL. For the same compound, the “IL-6 in cerebral cortex” value (IL-6; animal 6) was 36.80 pg/mL, the Ach (Acetylcholine; Average of 6 animals) was 68.07 pg/mg and the Ach (Acetylcholine; animal 1) was 67.00 pg/mg. For the same compound, the Ach (Acetylcholine; animal 2) was 68.50 pg/mg, the Ach (Acetylcholine; animal 3) was 68.80 pg/mg and the Ach (Acetylcholine; animal 4) was 68.00 pg/mg. For the same compound, the Ach (Acetylcholine; animal 5) was 67.90 pg/mg, the Ach (Acetylcholine; animal 6) was 68.20 pg/mg and the “Pole climbing test, time” value ([3]; Average of 6 animals) was 59.00 s. For the same compound, the “Pole climbing test, time” value ([3]; animal 1) was 65 s, the “Pole climbing test, time” value ([3]; animal 2) was 60 s and the “Pole climbing test, time” value ([3]; animal 3) was 62 s. For the same compound, the “Pole climbing test, time” value ([3]; animal 4) was 56 s, the “Pole climbing test, time” value ([3]; animal 5) was 54 s and the “Pole climbing test, time” value ([3]; animal 6) was 57 s. The “T-Maze test, Latency time” value ([4]; Average of 6 animals) was 18.83 s, the “T-Maze test, Number of entries in discriminated arm” value (“T-Maze test … in discriminated arm” for short) ([4]; Average of 6 animals) was 4.17 and the “T-Maze test, time spent in the discriminated arm” value ([4]; Average of 6 animals) was 60.67 s. For the same compound, the “T-Maze test … in discriminated arm” value ([4]; animal 1) was 5, the “T-Maze test, time spent in the discriminated arm” value ([4]; animal 1) was 60 s and the “T-Maze test … in discriminated arm” value ([4]; animal 2) was 6. The “T-Maze test, time spent in the discriminated arm” value ([4]; animal 2) was 58 s, the “T-Maze test … in discriminated arm” value ([4]; animal 3) was 6 and the “T-Maze test, time spent in the discriminated arm” value ([4]; animal 3) was 61 s. For the same compound, the “T-Maze test … in discriminated arm” value ([4]; animal 4) was 3, the “T-Maze test, time spent in the discriminated arm” value ([4]; animal 4) was 62 s and the “T-Maze test … in discriminated arm” value ([4]; animal 5) was 3. The “T-Maze test, time spent in the discriminated arm” value ([4]; animal 5) was 60 s, the “T-Maze test … in discriminated arm” value ([4]; animal 6) was 2 and the “T-Maze test, time spent in the discriminated arm” value ([4]; animal 6) was 63 s. For the same compound, the “T-Maze test, Number of entries in preferred arm” value (“T-Maze test … in preferred arm” for short) ([4]; Average of 6 animals) was 4.50, the “T-Maze test, time spent in the preferred arm” value ([4]; Average of 6 animals) was 105.67 s and the “T-Maze test … in preferred arm” value ([4]; animal 1) was 6. For the same compound, the “T-Maze test, time spent in the preferred arm” value ([4]; animal 1) was 109 s, the “T-Maze test … in preferred arm” value ([4]; animal 2) was 4 and the “T-Maze test, time spent in the preferred arm” value ([4]; animal 2) was 102 s. The “T-Maze test … in preferred arm” value ([4]; animal 3) was 5, the “T-Maze test, time spent in the preferred arm” value ([4]; animal 3) was 106 s and the “T-Maze test … in preferred arm” value ([4]; animal 4) was 4. The “T-Maze test, time spent in the preferred arm” value ([4]; animal 4) was 108 s, the “T-Maze test … in preferred arm” value ([4]; animal 5) was 5 and the “T-Maze test, time spent in the preferred arm” value ([4]; animal 5) was 105 s. For the same compound, the “T-Maze test … in preferred arm” value ([4]; animal 6) was 3, the “T-Maze test, time spent in the preferred arm” value ([4]; animal 6) was 104 s and the “T-Maze test, Latency time” value ([4]; animal 1) was 20 s. The “T-Maze test, Latency time” value ([4]; animal 2) was 19 s, the “T-Maze test, Latency time” value ([4]; animal 3) was 18 s and the “T-Maze test, Latency time” value ([4]; animal 4) was 19 s. The “T-Maze test, Latency time” value ([4]; animal 5) was 17 s and the “T-Maze test, Latency time” value ([4]; animal 6) was 20 s.

Reference: patent US12336972B2, “Synergistic nutritional compositions for treating neurocognitive disorders” (CELAGENEX RESEARCH (INDIA) PVT. LTD., priority 2021, dated 2025)
